Test results reported in the NIST ThermoML archive (doi:10.1016/j.jct.2016.07.035).
Numbers after ± are expanded uncertainties.

Details: Crystal; visual observation

Normal melting temperature: 173.50 ± 2.1 °C
Structure (SMILES): COC(=O)C1=C(C)NC(C)=C(C(=O)OC)C1c1ccccc1[N+](=O)[O-]
